Ends that are not written are not given here.
Tests used:
[1] = test system: bleomycin-induced pulmonary fibrosis; experiment: Bleomycin model of pulmonary fibrosis, therapeutic treatment; assay type: in vivo, C57BL/6 mice; settings: for survival rate: bleomycin 2 U kg−1 intratracheal, i.v. treatment from 7 days later, Ac-GFFY-A2 10 mg/kg, 21-day period, n = 16
Description: We further evaluated the anti‐fibrotic effect of Ac‐GFFY‐A2 peptide nanofibers in vivo. […] The observed reductions in fibrosis, collagen accumulation, and protein levels of Col 1 and α‐SMA strongly support the efficacy of Ac‐GFFY‐A2 in combating fibrotic processes, confirming that the peptide nanofibers as a TRB3/p62 PPIs modulator with a potent anti‐fibrotic activity.
C57BL/6 mice were intratracheally administered with bleomycin at a dose of 2 U kg^−1 body weight as previously described.^[ [11a] ^]
Hydroxyproline content of the right lung of each mouse was measured using a conventional hydroxyproline method as previously described.^[ [30] ^]
The left lungs cleared of blood were inflated with 10% neutral buffered formalin and fixed overnight. Then the tissues were embedded in paraffin and sectioned. The 5‐µm sections were stained with H&E and Masson trichrome according to the manufacturer`s instructions (Sigma–Aldrich). Immunohistochemistry was performed as previously described.^[ [30] ^] The antibodies specific for α‐SMA and Collagen I were used for staining.

[2] = test system: autophagic flux in activated MRC-5 cells; experiment: Autophagic flux (LC3-II:LC3-I, p62 western blot; mRFP-GFP-LC3 live-cell imaging); assay type: cell-based, human; settings: TGF-β1 10 ng/mL, peptide 50 µM, 24 h
Experimental: According to the manufacturer's instructions, MRC-5 cells were infected with mRFP-GFP-LC3 adenoviral particles. After infection, the cells were cultured for another 24 h and seeded on a CLSM dish at a density of 5 × 10^4 cells. After adherence, the cells were treated with 0 or 10 ng mL^-1 TGF-β1 for 24 h. On the other hand, in order to detect whether peptide could regulate the autophagic flux, the stable infected MRC-5 cells were seeded on a CLSM dish at a density of 5 × 10^4 cells. After adherence, the cells were treated with saline, Ac-GFFY-A2 (50 μM) or A2 (50 μM) plus TGF-β1 (10 ng mL^-1) for 24 h. The cells solely treated by saline as control group. Discarding the medium and washing the cells with cold PBS buffer. The autophagic flux was detected by Live Cell Imaging Microscopy (Leica TCS SP5). page 18: […] -3' and [NT]. […] The autophagic flux was detected by Live Cell Imaging Microscopy (Leica TCS SP5). […] The protein concentration was measured using BCA Protein Assay Kit (Thermo Scientific). […] The protein transferred PVDF membranes were incubated with following primary antibodies at 4°C overnight: Then the membranes were incubated with horseradish peroxidase (HRP)-conjugated secondary antibodies at room temperature for 1 h, and protein signals were detected using an enhanced chemiluminescence kit (Pierce). […] The co -precipitates were resolved using SDS-PAGE and detected with immunoblotting. […]

| Substance | survival rate [1] | quantification of fibrotic left lung sections (lung fibrotic score) ([1]; bleomycin mice, i.v. treatment, H&E, compared to saline or A2) | body weight ([1]; bleomycin mice, i.v. treatment, average body weight curve) | hydroxyproline content ([1]; bleomycin mice, i.v. treatment, bleomycin challenge alone ≈480) | autophagic flux [2] |
| --- | --- | --- | --- | --- | --- |
| Ac-GFFYGGWLTRLLQTK-OH [Ac-GFFY-A2] | 68.75% | significant decrease in fibrosis | partial recovery from the body weight loss | ≈ 280 µg per right lung tissue | restoration of autophagic flux |
| GGWLTRLLQTK-OH [A2, reference compound] | 62.50% | – | – | – | barely increased |
